Test results reported in PubChem BioAssay AID1963825 (Molecular Pharmacology Branch, DTP, NCI, 2024).

Assay: Anticancer human tumor 997537-175-T-J1-PDC patient-derived colon adenocarcinoma cell line growth inhibition [POLQ]
Settings: 997537-175-T-J1-PDC complex spheroid viability, combination with POLQ inhibitors; for IC50: curve of first compound; for viability, T/C: stronger effect = lower value
In short: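 Three-cell-type spheroids modelling solid tumor plus stroma served as the readout system; POL inhibitors were tested individually and in combination, concentration ranges set by clinical Cmax where known.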

[1] = second compound 0.0316 µM, first compound 0.0316 µM
[2] = second compound 0.0316 µM, first compound 0.1 µM
[3] = second compound 0.0316 µM, first compound 0.316 µM
[4] = second compound 0.0316 µM, first compound 1 µM
[5] = second compound 0.1 µM, first compound 0.0316 µM
[6] = second compound 0.1 µM, first compound 0.1 µM
[7] = second compound 0.1 µM, first compound 0.316 µM
[8] = second compound 0.1 µM, first compound 1 µM
[9] = second compound 0.316 µM, first compound 0.0316 µM
[10] = second compound 0.316 µM, first compound 0.1 µM
[11] = second compound 0.316 µM, first compound 0.316 µM
[12] = second compound 0.316 µM, first compound 1 µM
[13] = second compound 1 µM, first compound 0.0316 µM
[14] = second compound 1 µM, first compound 0.1 µM
[15] = second compound 1 µM, first compound 0.316 µM
[16] = second compound 1 µM, first compound 1 µM
[17] = second compound 3.16 µM, first compound 0.0316 µM
[18] = second compound 3.16 µM, first compound 0.1 µM
[19] = second compound 3.16 µM, first compound 0.316 µM
[20] = second compound 3.16 µM, first compound 1 µM
[21] = second compound 10 µM, first compound 0.0316 µM
[22] = second compound 10 µM, first compound 0.1 µM
[23] = second compound 10 µM, first compound 0.316 µM
[24] = second compound 10 µM, first compound 1 µM
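Also: luminescence signal used as a surrogate for viable cells; spheroids exposed to drugs for seven days before readout.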

With COc1cccc(OCCCN)c1-c1cc(Nc2cnc(C#N)cn2)n[nH]1 + Cc1cccc(N(C)C(=O)C2C(O)CCN2c2nc(C)cc(C(F)(F)F)c2C#N)c1 the IC50 (second compound 0.0316 µM) was 131 nM, the IC50 (second compound 0.1 µM) was 139 nM and the IC50 (second compound 0.316 µM) was 125 nM. For the same compound, the IC50 (second compound 1 µM) was 39 nM, the IC50 (second compound 3.16 µM) was 23.7 nM and the IC50 (second compound 10 µM) was 135 nM. It also gave a viability, T/C (second compound 0.0316 µM, first compound 0.00316 µM) of 92.7%, a viability, T/C (second compound 0.0316 µM, first compound 0.01 µM) of 97.7% and a viability, T/C [1] of 79%. The viability, T/C [2] was 60.8%, the viability, T/C [3] was 22.5% and the viability, T/C [4] was 27.9%. For the same compound, the viability, T/C (second compound 0.1 µM, first compound 0.00316 µM) was 111%, the viability, T/C (second compound 0.1 µM, first compound 0.01 µM) was 107% and the viability, T/C [5] was 50.1%. For the same compound, the viability, T/C [6] was 73%, the viability, T/C [7] was 32.8% and the viability, T/C [8] was 31.2%. It also gave a viability, T/C (second compound 0.316 µM, first compound 0.00316 µM) of 100%, a viability, T/C (second compound 0.316 µM, first compound 0.01 µM) of 79.8% and a viability, T/C [9] of 70.1%. It also gave a viability, T/C [10] of 45.3%, a viability, T/C [11] of 48.2% and a viability, T/C [12] of 20%. For the same compound, the viability, T/C (second compound 1 µM, first compound 0.00316 µM) was 101%, the viability, T/C (second compound 1 µM, first compound 0.01 µM) was 79.1% and the viability, T/C [13] was 59.6%. For the same compound, the viability, T/C [14] was 25.9%, the viability, T/C [15] was 29.5% and the viability, T/C [16] was 27.4%. It also gave a viability, T/C (second compound 3.16 µM, first compound 0.00316 µM) of 86.6%, a viability, T/C (second compound 3.16 µM, first compound 0.01 µM) of 85.4% and a viability, T/C [17] of 38%. The viability, T/C [18] was 20.6%, the viability, T/C [19] was 18.4% and the viability, T/C [20] was 36%. It also gave a viability, T/C (second compound 10 µM, first compound 0.00316 µM) of 86.8%, a viability, T/C (second compound 10 µM, first compound 0.01 µM) of 73.6% and a viability, T/C [21] of 62.9%. It also gave a viability, T/C [22] of 45.8%, a viability, T/C [23] of 53.1% and a viability, T/C [24] of 30.1%.

With O=C(c1cc(Cc2n[nH]c(=O)c3ccccc23)ccc1F)N1CCN(C(=O)C2CC2)CC1 + COC1C(OC(N)=O)C(O)C(Oc2ccc3c(O)c(NC(=O)c4ccc(O)c(CC=C(C)C)c4)c(=O)oc3c2C)OC1(C)C the IC50 (second compound 0.0316 µM) was > 10000 nM, the IC50 (second compound 0.1 µM) was > 10000 nM and the IC50 (second compound 0.316 µM) was > 10000 nM. For the same compound, the IC50 (second compound 1 µM) was > 10000 nM, the IC50 (second compound 3.16 µM) was > 10000 nM and the IC50 (second compound 10 µM) was > 10000 nM. It also gave a viability, T/C [1] of 98.2%, a viability, T/C [2] of 99.8% and a viability, T/C [3] of 99.1%. For the same compound, the viability, T/C [4] was 88.3%, the viability, T/C (second compound 0.0316 µM, first compound 3.16 µM) was 93% and the viability, T/C (second compound 0.0316 µM, first compound 10 µM) was 101%. The viability, T/C [5] was 73.7%, the viability, T/C [6] was 91.7% and the viability, T/C [7] was 101%. For the same compound, the viability, T/C [8] was 106%, the viability, T/C (second compound 0.1 µM, first compound 3.16 µM) was 99% and the viability, T/C (second compound 0.1 µM, first compound 10 µM) was 101%. It also gave a viability, T/C [9] of 105%, a viability, T/C [10] of 112% and a viability, T/C [11] of 98.9%. The viability, T/C [12] was 96.8%, the viability, T/C (second compound 0.316 µM, first compound 3.16 µM) was 100% and the viability, T/C (second compound 0.316 µM, first compound 10 µM) was 107%. It also gave a viability, T/C [13] of 100%, a viability, T/C [14] of 98% and a viability, T/C [15] of 110%. For the same compound, the viability, T/C [16] was 92.7%, the viability, T/C (second compound 1 µM, first compound 3.16 µM) was 77.1% and the viability, T/C (second compound 1 µM, first compound 10 µM) was 96.3%. The viability, T/C [17] was 101%, the viability, T/C [18] was 95.1% and the viability, T/C [19] was 94.7%. The viability, T/C [20] was 86%, the viability, T/C (second compound 3.16 µM, first compound 3.16 µM) was 95.8% and the viability, T/C (second compound 3.16 µM, first compound 10 µM) was 96.9%. For the same compound, the viability, T/C [21] was 102%, the viability, T/C [22] was 78% and the viability, T/C [23] was 104%. For the same compound, the viability, T/C [24] was 98.5%, the viability, T/C (second compound 10 µM, first compound 3.16 µM) was 91.7% and the viability, T/C (second compound 10 µM, first compound 10 µM) was 107%.
